Assay results from patent publication US12539279B2, “Supramolecular ionizable lipid molecules with heteroatomic tuning for nucleic acid delivery” (priority 2023, dated 2026).
“Also recorded” adds a separate entry of the source. Read-outs that look alike come from different tables or passages of the source. Blank lines part the entries; values can stand above or below the compound they belong to.

Key:
[1] = mRNA encapsulation efficiency (modified Quant-iT RiboGreen assay); type: physicochemical; conditions: LNP before freezing
Procedure: For LNPs encapsulating mRNA, mRNA concentration and encapsulation efficiency were determined using a modified Quant-iT RiboGreen assay (Invitrogen). The assay was performed in triplicates in a 96 well plate. 12 μL of the LNP sample or TE buffer (composed of 10 mM Tris-HCl containing 1 mM EDTA·Na2) (blank sample) was diluted in 300 μL of 1×TE buffer pH 7.5. 50 μL of the diluted samples were transferred to 6 separate wells and either 50 μL of TE buffer or 50 μL of a 4% Triton X-100 solution in TE buffer was added to the wells. Two 6-point standard curves ([…]) were prepared in the same plate by diluting Firefly luciferase mRNA to a final volume of 100 μL in 2% Triton X-100 or TE buffer. The plate was then incubated for 10 min at 40° C. with gentle shaking. The Ribogreen reagent was diluted 1:100 in TE buffer, and 100 μL of this solution was added to each well. […] Fluorescence intensity was measured with a plate reader at an excitation wavelength of 480 nm and an emission wavelength of 525 nm. The raw fluorescence values were subtracted by the background fluorescence (blank sample). The concentration of free mRNA and total mRNA were determined by linear interpolation of the appropriate standard curve. Encapsulation efficiency was determined by dividing the calculated concentration of encapsulated mRNA by the total mRNA concentration in the LNP sample.

[2] = system: firefly luciferase protein expression; test: Intramuscular expression profile of formulated firefly luciferase mRNA in mice (IVIS); type: in vivo, BALB/c mice; conditions: intramuscular firefly luciferase mRNA-LNP
Procedure: (§1) All procedures used in animal studies conducted at the University of Toronto were approved by Institutional Animal Care and Use committee (IACUC) under protocol number 20012621 and comply with all applicable local, provincial, and federal regulations. Female BALB/c mice (7-8 weeks old) were purchased from Charles River Laboratories and acclimated for 1 to 2 weeks before initiation of the study.
Mice (n=4) were injected in both quadriceps with 0.5 μg of formulated firefly luciferase mRNA in 50 μL. At various timepoints (6 hours, 24 hours, 48 hours, and 96 hours post-dose), mice were injected intraperitoneally with 3 mg D-Luciferin (Thermo Scientific 88291) in 200 μL 1×PBS. 5 minutes later, mice were anesthetized and imaged on an in vivo imaging system (PerkinElmer, IVIS Spectrum) to measure total bioluminescent flux (photons/second) in each hindlimb (FIG. 2). The area under curve (AUC) for individual hindlimbs was determined with GraphPad Prism 9.

[3] = type: physicochemical
Procedure: Determination of the apparent pKa of LNPs was carried out using a TNS assay. Briefly, a series of buffers was generated by titrating a solution containing 10 mM citrate, 10 mM phosphate, 10 mM borate, and 150 mM NaCl with 1.0 M HCl. Aliquots of this combined buffer were taken to generate 12 total buffers ranging from pH 4.0 to 9.5 in increments of 0.5 pH. LNPs (diluted to 100 uM of ionizable lipid in distilled water) and 6-(p-toluidino)-2-naphthalenesulfonic acid (TNS, Sigma Aldrich, 60 uM in distilled water) were diluted into these buffers to a final concentration of 9 and 5.45 μM, respectively. The plate was covered and equilibrated at room temperature for 20 min. Fluorescence intensity was determined using a BioTek H1 Synergy plate reader (325 nm excitation/435 nm emission). The raw fluorescence values were fit using GraphPad Prism 8 to determine pKa, which corresponds to the pH value at 50% max fluorescence.

[4] = system: firefly luciferase mRNA expression in liver, spleen, lungs, heart, kidneys; test: Organ expression of firefly luciferase mRNA after intravenous injection in mice; type: in vivo, BALB/c mice; conditions: 6 hours post-dose; for organ in which the highest total flux was measured: intravenous 0.5 μg mRNA
Procedure: as §1
Mice (n=3) were injected intravenously (tail vein) with 0.5 μg of formulated firefly luciferase mRNA in 200 μL. At 6 hours post-dose, mice were injected intraperitoneally with 3 mg D-Luciferin (Thermo Scientific 88291) in 200 μL 1×PBS. 5 minutes later, mice were euthanized and key organs (liver, spleen, kidneys, lungs, and heart) were harvested and immediately imaged on an in vivo imaging system (PerkinElmer, IVIS Spectrum) to measure total bioluminescent flux (photons/second). LNPs formulated with compounds I-2, I-4, I-5, I-6, I-8 were tested for their ability to functionally deliver firefly luciferase mRNA to the major organs (liver, spleen, lungs, heart, kidneys) after intravenous injection and were compared to compounds I-12 and SM-102.

[5] = Pharmacokinetics after intramuscular injection of mRNA-LNPs in mice; type: in vivo, female CD-1 mice; conditions: for Kp / half-life / AUC(0-t) / Cmax: female; for half-life / AUC(0-t) / Cmax: CD-1; for half-life: I-12 estimate not considered accurate, read-out: estimated apparent half-life (t1/2) in plasma (converted); for AUC(0-t): read-out: Overall plasma exposure (AUC0-tlast); for Cmax: read-out: maximum plasma concentration (Cmax); for Overall tissue exposure (AUC0-tlast), liver: mouse liver; for Overall tissue exposure (AUC0-tlast), muscle: mouse muscle; for time of peak plasma level: 12.312 μg Compound I-12 or 12.764 μg Compound I-6; for Overall tissue exposure (AUC0-tlast), spleen: mouse spleen; for detection in urine: mouse urine
Procedure: Pharmacokinetic studies in mice were conducted according to Transpharmation Canada Ltd. standard operating procedures (SOPs) and accepted scientific practices but was not in accordance with the principles of Good Laboratory Practice (GLP). Two studies were conducted and have been combined for analysis. Their objective was to determine the concentrations of two ionizable lipids, Compound I-12, and Compound I-6, in plasma, muscle, liver, spleen, urine, and feces following intramuscular (IM) injection of each lipid to groups of female CD-1 mice. All animals received an intramuscular injection of one of the lipids, formulated as lipid nanoparticles (LNPs) with mRNA, into the right quadricep. Doses administered IM were 12.312 μg of Compound I-12 and 12.764 μg of Compound I-6, corresponding to 0.5 μg of mRNA formulated in LNPs. Animals in study 1 were group housed in metabolic cages (n=3 per cage) and euthanized at 6 timepoints (3, 6, 12, 24, 48 and 96 hours) over 4 days-post injection for the collection of blood, liver, spleen, and muscle (n=3/time-point). A single pooled urine and feces sample was also collected from each cage at the appropriate time-point. In study 2, animals were housed in shoebox cages and samples (n=4/time-point) were collected at 6, 12, 24, 48, 96 and 168 hours (Compound I-12 and Compound I-6) and at 21 days (I-12 only, n=3) post-dose. A single pooled feces sample was also collected from each cage at the time of cage changes and weighed following terminal collections. Blood samples were divided for bioanalysis and diagnostic testing. Data from both studies was combined for data analysis. Tandem liquid chromatography-mass spectrometry (LC-MS/MS) methods were developed for the quantification of Compound I-12 and Compound I-6 in mouse plasma, muscle, liver, spleen, urine, and feces. The qualified methods were used to determine the concentration of the analytes in each matrix. The pharmacokinetics (PK) parameters for Compound I-12 and Compound I-6 were estimated from the plasma, muscle, liver, and spleen concentration versus time curves for each animal using Phoenix® WinNonlin 8.3 (Certara, Mountainview, CA).

[6] = type: physicochemical; conditions: for time required to have measurable levels of hydrolysis: 2.5 eq. KOH in d4-methanol, 1H NMR
Procedure: Ionizable lipids including compounds described herein (2 μmol) were hydrolyzed with 2.5 eq. of KOH (200 μL, 0.025 M in d4-methanol) in a 3 mm NMR tube. 1H-NMR was acquired with a 700 MHz Agilent DD2 Spectrometer every 5 min for a total of 180 min. Additionally, spectra were acquired at 24 h, 48 h, 72 h, 144 h, 192 h, and 240 h for I-12, ALC-0315, and DLin-MC3-DMA. Data acquisition started ˜10 min after the start of the reaction due to sample preparation and tune/lock/shim. Ester peaks were integrated using MestReNova and normalized to value at t=0 min. The data series were fitted to a one phase decay exponential following y=e, where k is the rate of hydrolysis.

[7] = CD-1, liver, mouse, IM mRNA-LNP, read-out: tissue/plasma AUC ratio, liver
[8] = CD-1, muscle, mouse, IM mRNA-LNP, read-out: tissue/plasma AUC ratio, muscle
[9] = CD-1, spleen, mouse, IM mRNA-LNP, read-out: tissue/plasma AUC ratio, spleen

Compound: CCCCCCCCCCN(CCCCCCCCCC)CCOC(=O)CCN(CCO)CCC(=O)OCCN(CCCCCCCCCC)CCCCCCCCCC [Compound I-1]
- mRNA encapsulation efficiency relative to amide analogue (Compound I-12) [1]: significantly reduced
- intramuscular expression (in words) [2]: significantly reduced intramuscular expression
- Apparent pKa relative to amide analogue (Compound I-12 / F16) [3]: significantly reduced

Compound: CCCCCCCCCCN(CCCCCCCCCC)CCCOC(=O)CCN(CCO)CCC(=O)OCCCN(CCCCCCCCCC)CCCCCCCCCC [Compound I-2]
- organ in which the highest total flux was measured [4]: liver
- fraction of expression in the spleen compared with SM-102 ([4]; intravenous): higher fraction of expression in the spleen than SM-102

- Apparent pKa [3]: 6-7
Compound: CCCCCCCCCCN(CCCCCCCCCC)CCCOC(=O)CCCN(CCO)CCCC(=O)OCCCN(CCCCCCCCCC)CCCCCCCCCC [Compound I-4]
- intramuscular expression (in words) [2]: higher intramuscular expression than DLin-MC3-DMA
- organ in which the highest total flux was measured [4]: liver
- fraction of expression in the spleen compared with SM-102 ([4]; intravenous): higher fraction of expression in the spleen than SM-102

- Apparent pKa [3]: 6-7
Compound: CCCCCCCCCCN(CCCCCCCCCC)CCCCOC(=O)CCCN(CCO)CCCC(=O)OCCCCN(CCCCCCCCCC)CCCCCCCCCC [Compound I-5]
- intramuscular expression (in words) [2]: higher intramuscular expression than DLin-MC3-DMA
- organ in which the highest total flux was measured [4]: spleen
- fraction of expression in the spleen compared with SM-102 ([4]; intravenous): higher fraction of expression in the spleen than SM-102

Compound: CCCCCCCCCCN(CCCCCCCCCC)CCCOC(=O)CCCCN(CCO)CCCCC(=O)OCCCN(CCCCCCCCCC)CCCCCCCCCC [Compound I-6]
- intramuscular expression (in words) [2]: higher intramuscular expression than DLin-MC3-DMA; also recorded: highest intramuscular expression of all compounds tested
- Apparent pKa [3]: 6-7
- expression compared with SM-102 in spleen and liver ([4]; intravenous): higher expression than SM-102 in the spleen but not in the liver
- expression in organs among the compounds related to this disclosure ([4]; intravenous): highest expression in all organs
- fraction of expression in the spleen compared with SM-102 ([4]; intravenous): higher fraction of expression in the spleen than SM-102
- Kp [5, 7]: 46
- Kp [5, 8]: 962
- Kp [5, 9]: 59
- half-life ([5]; mouse plasma, IM mRNA-LNP): 15.3 h
- AUC(0-t) ([5]; mouse plasma, IM mRNA-LNP): 1030 ng·h/mL
- Cmax ([5]; mouse plasma, IM mRNA-LNP): 108 ng/mL
- Overall tissue exposure (AUC0-tlast), liver ([5]; IM mRNA-LNP): 47.0 µg·h/g
- Overall tissue exposure (AUC0-tlast), muscle ([5]; IM mRNA-LNP): 994 µg·h/g
- time of peak plasma level ([5]; mouse plasma, IM mRNA-LNP): 3 h
- Overall tissue exposure (AUC0-tlast), spleen ([5]; IM mRNA-LNP): 61.1 µg·h/g
- detection in urine ([5]; IM mRNA-LNP): Neither Compound I-12 nor Compound I-6 were detected in urine

- Apparent pKa [3]: 6-7
Compound: CCCCCCCCCCN(CCCCCCCCCC)CCCCOC(=O)CCCCN(CCO)CCCCC(=O)OCCCCN(CCCCCCCCCC)CCCCCCCCCC [Compound I-7]
- intramuscular expression (in words) [2]: higher intramuscular expression than DLin-MC3-DMA

- Apparent pKa [3]: 6-7
- in vitro degradation rate, faster than Compound I-4 ([6]; 10 mM): ~50%
Compound: CCCCCCCCCCN(CCCCCCCCCC)CCCC(=O)OCCCN(CCO)CCCOC(=O)CCCN(CCCCCCCCCC)CCCCCCCCCC [Compound I-8]
- intramuscular expression (in words) [2]: higher intramuscular expression than DLin-MC3-DMA
- organ in which the highest total flux was measured [4]: liver
- fraction of expression in the spleen compared with SM-102 ([4]; intravenous): higher fraction of expression in the spleen than SM-102

Compound: CCCCCCCCCCN(CCCCCCCCCC)CCNC(=O)CCN(CCO)CCC(=O)NCCN(CCCCCCCCCC)CCCCCCCCCC [Compound I-12]
- organ in which the highest total flux was measured [4]: spleen
- time required to have measurable levels of hydrolysis [6]: 10 days
- Kp [5, 7]: 50
- Kp [5, 8]: 236
- Kp [5, 9]: 28
- half-life ([5]; mouse plasma, IM mRNA-LNP): 295 h
- AUC(0-t) ([5]; mouse plasma, IM mRNA-LNP): 13800 ng·h/mL
- Cmax ([5]; mouse plasma, IM mRNA-LNP): 348 ng/mL
- Overall tissue exposure (AUC0-tlast), liver ([5]; IM mRNA-LNP): 694 µg·h/g
- Overall tissue exposure (AUC0-tlast), muscle ([5]; IM mRNA-LNP): 3244 µg·h/g
- plasma AUC0-tlast, fold greater than Compound I-6 ([5]; mouse plasma, IM mRNA-LNP): ~13 fold
- time of peak plasma level ([5]; mouse plasma, IM mRNA-LNP): 6 h
- Overall tissue exposure (AUC0-tlast), spleen ([5]; IM mRNA-LNP): 391 µg·h/g
- detection in urine ([5]; IM mRNA-LNP): Neither Compound I-12 nor Compound I-6 were detected in urine
- excreted in feces ([5]; mouse, after 21 days post-dose): Approximately 18%

- time required to have measurable levels of hydrolysis [6]: 10 days
Compound: CCCCC/C=C\C/C=C\CCCCCCCCC(CCCCCCCC/C=C\C/C=C\CCCCC)OC(=O)CCCN(C)C [DLin-MC3-DMA]

- time to complete degradation (base-catalyzed hydrolysis) ([6]; 10 mM): ≤ 180 min
Compound: CCCCCCCCCCCOC(=O)CCCCCN(CCO)CCCCCCCC(=O)OC(CCCCCCCC)CCCCCCCC [SM-102, reference compound]
- organ in which the highest total flux was measured [4]: liver

Compound: ALC-0315
- time required to have measurable levels of hydrolysis [6]: 10 days
